One data set concerns wild-type HCMV AD169. Put plainly: Susceptibility (IC50) of HCMV AD169 wild-type. In kind it is cell-based, Human cytomegalovirus. Conditions: Human betaherpesvirus 5, NHDF cells, read-out: IC 50, Wild-type. How it is done:
(§1) The test compounds are employed as 50 millimolar (mM) solutions in dimethyl sulfoxide (DMSO). Ganciclovir®, Foscarnet® and Cidofovir® are used as reference compounds. After addition of in each case 2 μl of the 50, 5, 0.5 and 0.05 mM DMSO stock solutions to 98 μl portions of cell culture medium in row 2 A-H for duplicate determinations, 1:2 dilutions are carried out with 50 μl portions of medium up to row 11 of the 96-well plate. The wells in rows 1 and 12 each contain 50 μl of medium. 150 μl of a suspension of 1×10^4 cells (human prepuce fibroblasts [NHDF]) are then pipetted into each of the wells (row 1=cell control) and, in rows 2-12, a mixture of HCMV-infected and uninfected NHDF cells (M.O.I.=0.001-0.002), i.e. 1-2 infected cells per 1000 uninfected cells. Row 12 (without substance) serves as virus control. The final test concentrations are 250-0.0005 μM. The plates are incubated at 37° C./5% CO2 for 6 days, i.e. until all the cells are infected in the virus controls (100% cytopathogenic effect [CPE]). The wells are then fixed and stained by adding a mixture of formalin and Giemsa's dye (30 minutes), washed with double-distilled water and dried in a drying oven at 50° C. The plates are then assessed visually using an overhead microscope (plaque multiplier from Technomara).
(§2) For this purpose, NHDF cells are seeded in tissue culture vessels. 5×10^3 cells per well are seeded in 96-well plates and infected with cell-free HCMV AD169 with an moi of 0.03. The infections are cultivated under substance pressure which corresponds to 10 times the IC50 of the substance. Preferably, 30-100 96-well plates inoculated as described are made up. […] Finally, viral stocks are produced as described above and frozen. Serial ten-fold dilution of the virus-infected cells or of the cell culture supernatant of the virus-infected cells is followed by determination of the titer on 24-well plates of confluent NHDF cells after vital staining with neutral red. Finally, the susceptibility to various substances (IC50 determination) is determined as described above.
(§3) The HCMVAD169 mutants selected as described above are grown in vitro on human embryonic prepuce fibroblasts (NHDF cells) under substance pressure (10×IC50 HCMVAD169). After infection of the NHDF cells with a multiplicity of infection (M.O.I) of 0.01, the virus-infected cells are harvested 5-10 days later, and the total DNA is isolated from these cells with the aid of established standard methods (e.g. phenol extraction and ethanol precipitation). Qiagen Sequencing Services (Qiagen, Hilden) determined, after amplification of the viral UL86 gene by PCR, the DNA sequence, which was then transcribed into protein sequence. Compared with the initial strain HCMV AD169, the differences shown in table 2 were detectable in the protein sequence of the major capsid protein (UL86) in the resistant viruses. The IC50 values [μM] of various substances on these mutants compared with the initial strain are likewise indicated. (n.d.=not measured). […] Depending on the nature of the substance, certain mutations lead to various extents of resistance.

Data set [1] relates to HCMV AD169 clone with mutation in UL86 E1320Q. In words: Susceptibility (IC50) of resistant HCMV AD169 clone E1320Q. In kind it is cell-based, Human cytomegalovirus. The note with it: Human betaherpesvirus 5, read-out: IC 50, E1320Q. How it is done: as §1, §2, §3
Data set [2] has as its system HCMV AD169 clone with mutation in UL86 P586T. In words: Susceptibility (IC50) of resistant HCMV AD169 clone P586T. Type of data set: cell-based, Human cytomegalovirus. The note with it: Human betaherpesvirus 5, read-out: IC 50, P586T. How it is done: as §1, §2, §3
In data set [3] the test system is HCMV AD169 clone with mutation in UL86 Q1223R. In words: Susceptibility (IC50) of resistant HCMV AD169 clone Q1223R. In kind it is cell-based, Human cytomegalovirus. Conditions: Human betaherpesvirus 5, read-out: IC 50, Q1223R. How it is done: as §1, §2, §3
Data set [4] has as its system HCMV AD169 clone with mutation in UL86 K1338N. In words: Susceptibility (IC50) of resistant HCMV AD169 clone K1338N. In kind it is cell-based, Human cytomegalovirus. Conditions: Human betaherpesvirus 5, read-out: IC 50, K1338N. How it is done:
as §1, §2, §3

The subject of data set [5] is HCMV AD169 clone with mutation in UL86 R435C. In words: Susceptibility (IC50) of resistant HCMV AD169 clone R435C. Type of data set: cell-based, Human cytomegalovirus. The note with it: Human betaherpesvirus 5, read-out: IC 50, R435C. How it is done: as §1, §2, §3
Data set [6] deals with HCMV AD169 clone with mutation in UL86 D563N. In words: Susceptibility (IC50) of resistant HCMV AD169 clone D563N. Conditions: Human betaherpesvirus 5, read-out: IC 50, D563N. In kind it is cell-based, Human cytomegalovirus. How it is done:
as §1, §2, §3

The test system of data set [7] is Human cytomegalovirus (HCMV). In words: Anti-HCMV cytopathogenicity test. Conditions: for IC50: Human betaherpesvirus 5, 144 h, NHDF cells, 6 days, cytopathogenic effect, read-out: IC50, antiviral activity in vitro; for SI (selectivity index): antiviral activity in vitro. In kind it is cell-based. How it is done:
Human cytomegalovirus (HCMV), DavisSmith (ATCC VR807) or AD169 (ATCC VR538) strain, is grown in vitro on human embryonic prepuce fibroblasts (NHDF cells). After the NHDF cells have been infected with a multiplicity of infection (M.O.I.) of 0.01, the virus-infected cells are harvested 5-10 days later and stored in the presence of minimal essential medium (MEM), 10% fetal calf serum (FCS) with 10% DMSO at −80° C. A cell-free stock is produced by removing only the cell culture supernatant and immediately freezing at −80° C. After serial ten-fold dilutions of the virus-infected cells or of the cell culture supernatant of the virus-infected cells (cell-free virus), the titer is determined on 24-well plates of confluent NHDF cells after vital staining with neutral red.
as §1

Data set [8] deals with HCMV AD169 clone with mutation in UL86 A689T. In words: Susceptibility (IC50) of resistant HCMV AD169 clone A689T. In kind it is cell-based, Human cytomegalovirus. Conditions: Human betaherpesvirus 5, read-out: IC 50, A689T. How it is done: as §1, §2, §3
The subject of data set [9] is HCMV AD169 clone with mutation in UL86 V601M. In words: Susceptibility (IC50) of resistant HCMV AD169 clone V601M. In kind it is cell-based, Human cytomegalovirus. The note with it: Human betaherpesvirus 5, read-out: IC 50, V601M. How it is done:
as §1, §2, §3

In data set [10] the test system is HCMV AD169 clone with mutation in UL86 P1189T. Put plainly: Susceptibility (IC50) of resistant HCMV AD169 clone P1189T. In kind it is cell-based, Human cytomegalovirus. The note with it: Human betaherpesvirus 5, read-out: IC 50, P1189T. How it is done:
as §1, §2, §3

Data set [11] has as its system HCMV AD169 clone with mutation in UL86 A1226T. In words: Susceptibility (IC50) of resistant HCMV AD169 clone A1226T. In kind it is cell-based, Human cytomegalovirus. Conditions: Human betaherpesvirus 5, read-out: IC 50, A1226T. How it is done: as §1, §2, §3
Data set [12] has as its system HCMV AD169 clone with mutation in UL86 R682H. Put plainly: Susceptibility (IC50) of resistant HCMV AD169 clone R682H. In kind it is cell-based, Human cytomegalovirus. The note with it: Human betaherpesvirus 5, read-out: IC 50, R682H. How it is done:
as §1, §2, §3

Data set [13] concerns HCMV AD169 clone with mutation in UL86 D441N. In words: Susceptibility (IC50) of resistant HCMV AD169 clone D441N. Type of data set: cell-based, Human cytomegalovirus. The note with it: Human betaherpesvirus 5, read-out: IC 50, D441N. How it is done: as §1, §2, §3

With `CCCCS(=O)(=O)Nc1cccc(NC(=O)Nc2ccc(F)c(Cl)c2)c1` [Example 5, N-[3-({[(3-Chloro-4-fluorophenyl)amino]carbonyl}amino)phenyl]-1-butanesulfonamide], the IC50 with wild-type HCMV AD169 was 140 nM; in data set [1], 9000 nM; in data set [2] it was 800 nM; in [3], 1400 nM; in data set [4], over 9000 nM; in data set [5], 6000 nM. Besides, the IC50 in data set [6] came to 1400 nM; in [7], 140 nM; in [8], 400 nM; in [9], 1500 nM. The “SI (selectivity index)” value in data set [7] stood at 70.
With `CC(C)n1c(-c2cccc(NC(=O)Nc3ccc(F)c(Cl)c3)c2)n[nH]c1=O` [Example 6, 1-(3-Chloro-4-fluorophenyl)-3-[3-(4-isopropyl-5-oxo-4,5-dihydro-1H-[1,2,4]triazol-3-yl)phenyl]urea], in [7], the IC50 amounted to 400 nM and the “SI (selectivity index)” value came to 150.
Turning to `O=C(Nc1cccc(-c2n[nH]c(=O)n2C2CCCCC2)c1)Nc1ccc(F)c(Cl)c1` [Example 7, 1-(3-Chloro-4-fluorophenyl)-3-[3-(4-cyclohexyl-5-oxo-4,5-dihydro-1H-[1,2,4]triazol-3-yl)phenyl]urea], the IC50 with wild-type HCMV AD169 was 1500 nM; in [1] it was 24000 nM; in data set [2], 7600 nM; in data set [3], 12000 nM; in data set [4] it was 15000 nM; in data set [5], 3000 nM. Besides, the IC50 in data set [6] came to 15000 nM; in data set [7], 1500 nM; in data set [8], 4500 nM; in data set [9], 12000 nM. Also, the “SI (selectivity index)” value in data set [7] was determined as 30.
Consider `CC(=O)Nc1ccc(NC(=O)Nc2ccc(F)c(Cl)c2)cc1` [Example 3, N-[4-({[(3-Chloro-4-fluorophenyl)amino]carbonyl}amino)phenyl]acetamide], for which the IC50 in the data set with wild-type HCMV AD169 was 500 nM; in data set [1], over 20000 nM; in data set [2], over 20000 nM; in data set [3] it was over 20000 nM; in [10] it was over 20000 nM; in data set [4], over 20000 nM. In addition, the IC50 in data set [5] is over 20000 nM; in data set [6], over 20000 nM; in data set [7], 500 nM; in [11], over 20000 nM; in data set [12], over 20000 nM; in data set [13], over 20000 nM. The IC50 in [8] and in [9] was over 20000 nM each time. Also, in data set [7], the “SI (selectivity index)” value worked out at 40.
Consider `Cc1cc(Cl)ccc1NC(=O)Nc1cccc(C2=NNC(=O)C2(C)C)c1` [Example 8, N-(4-Chloro-2-methylphenyl)-N′-[3-(4,4-dimethyl-5-oxo-4,5-dihydro-1H-pyrazol-3-yl)phenyl]urea], for which the melting point is 226.8 °C. In the data set with wild-type HCMV AD169, the IC50 was found to be 600 nM. Besides, the IC50 in data set [1] is over 21000 nM. Besides, the IC50 in data set [2] was over 21000 nM. The IC50 in data set [3] is over 21000 nM. Moreover, the IC50 in data set [4] was over 21000 nM. In addition, in [5], the IC50 turned out to be 1300 nM. In addition, in [6], the IC50 is over 21000 nM. Further, in data set [7], the IC50 is 600 nM and the “SI (selectivity index)” value was 30. Moreover, in data set [8], the IC50 was over 21000 nM. The IC50 in data set [9] is over 21000 nM.
With `Nc1nc(O)c2ncn(COC(CO)CO)c2n1` [Ganciclovir, reference compound], the IC50 (in the data set with wild-type HCMV AD169; in data set [1]; in data set [2]; in data set [3]; in data set [10]; in [4]) was 1000 nM each time. The IC50 in data set [5], in data set [6], in [11], in [12], in data set [13] and in data set [8] was 1000 nM each time. The IC50 in [9] was found to be 1000 nM.

The record behind these values is patent publication US20070004735A1, “Method for inhibiting the replication of herpes viruses” (priority 2003, published 2007).
